Values joined by “and” are separate entries in the source; they are usually repeats but may differ in a detail not shown here. Equal values may be shown once. Where a name gives a salt, the structure may show the parent alone.
Experiments:
[1] = biological target: Replicase polyprotein 1ab (Severe acute respiratory syndrome coronavirus 2, UniProt P0DTD1); test: biochemical; format: functional
[2] = biological target: Replicase polyprotein 1ab (Middle East respiratory syndrome-related coronavirus (isolate UnitedKingdom/H123990006/2012) (Betacoronavirus England 1) (Humancoronavirus EMC)) (UniProt K9N7C7); settings: at 10 µM
[3] = biological target: Replicase polyprotein 1ab (Middle East respiratory syndrome-related coronavirus (isolate UnitedKingdom/H123990006/2012) (Betacoronavirus England 1) (Humancoronavirus EMC), UniProt K9N7C7); test: biochemical; format: functional
Chain of Replicase polyprotein 1ab (Middle East respiratory syndrome-related coronavirus (isolate UnitedKingdom/H123990006/2012) (Betacoronavirus England 1) (Humancoronavirus EMC), UniProt K9N7C7) (K9N7C7 3248-3553 limits assumed): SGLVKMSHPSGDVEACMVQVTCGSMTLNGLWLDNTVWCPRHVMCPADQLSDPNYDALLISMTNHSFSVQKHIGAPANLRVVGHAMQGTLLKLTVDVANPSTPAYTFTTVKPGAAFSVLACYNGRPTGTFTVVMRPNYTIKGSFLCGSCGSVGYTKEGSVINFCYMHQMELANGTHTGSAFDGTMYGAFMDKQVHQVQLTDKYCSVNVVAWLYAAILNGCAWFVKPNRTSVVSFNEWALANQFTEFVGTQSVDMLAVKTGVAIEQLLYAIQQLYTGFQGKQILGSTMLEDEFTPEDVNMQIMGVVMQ

[4] = biological target: Chymotrypsin (Homo sapiens) (UniProt Q99895+P17538+P40313+Q6GPI1); test: Chymotrypsin inhibition percentage at 10 µM by FRET kind of response from peptide substrate; format: functional
Chain of Chymotrypsin (Homo sapiens) (Q6GPI1 whole entry, looked up, chain 1 of 4): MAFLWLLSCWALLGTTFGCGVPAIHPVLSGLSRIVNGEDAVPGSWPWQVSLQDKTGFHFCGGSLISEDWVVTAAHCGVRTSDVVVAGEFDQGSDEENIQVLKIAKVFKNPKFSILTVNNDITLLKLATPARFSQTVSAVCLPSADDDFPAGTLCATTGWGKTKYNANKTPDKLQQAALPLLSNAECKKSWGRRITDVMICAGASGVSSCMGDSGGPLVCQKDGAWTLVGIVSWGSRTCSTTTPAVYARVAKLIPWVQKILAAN
Chain of Chymotrypsin (Homo sapiens) (P40313 whole entry, looked up, chain 2 of 4): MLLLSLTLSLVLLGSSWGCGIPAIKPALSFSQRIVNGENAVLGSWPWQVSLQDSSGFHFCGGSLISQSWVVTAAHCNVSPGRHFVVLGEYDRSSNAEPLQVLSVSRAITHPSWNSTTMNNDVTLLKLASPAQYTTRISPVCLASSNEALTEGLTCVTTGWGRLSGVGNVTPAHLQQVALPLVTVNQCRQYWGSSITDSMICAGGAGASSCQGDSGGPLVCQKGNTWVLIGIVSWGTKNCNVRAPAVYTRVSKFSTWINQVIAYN
Chain of Chymotrypsin (Homo sapiens) (P17538 whole entry, looked up, chain 3 of 4): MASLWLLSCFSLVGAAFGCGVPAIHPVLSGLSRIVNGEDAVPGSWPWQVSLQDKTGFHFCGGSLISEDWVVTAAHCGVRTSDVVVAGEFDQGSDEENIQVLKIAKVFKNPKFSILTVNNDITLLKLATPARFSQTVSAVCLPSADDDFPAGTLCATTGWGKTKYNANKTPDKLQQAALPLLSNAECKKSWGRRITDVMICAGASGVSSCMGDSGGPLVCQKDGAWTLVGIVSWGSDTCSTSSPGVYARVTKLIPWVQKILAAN
Chain of Chymotrypsin (Homo sapiens) (Q99895 whole entry, looked up, chain 4 of 4): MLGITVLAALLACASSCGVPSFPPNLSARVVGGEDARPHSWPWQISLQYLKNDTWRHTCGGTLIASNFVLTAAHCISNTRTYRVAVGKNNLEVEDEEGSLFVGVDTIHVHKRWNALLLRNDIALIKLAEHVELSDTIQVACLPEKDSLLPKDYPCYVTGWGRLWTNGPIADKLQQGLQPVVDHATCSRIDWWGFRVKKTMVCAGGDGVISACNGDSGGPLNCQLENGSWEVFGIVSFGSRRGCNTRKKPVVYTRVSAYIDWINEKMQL

[5] = tested as the Zn salt or complex

| Compound | IC50 [1] [µM] | inhibition [2] | IC50 [3] [µM] | inhibition [4] [%] | further results |
| --- | --- | --- | --- | --- | --- |
| COc1cccc2c1C(=O)c1c(O)c3c(c(O)c1C2=O)C[C@@](O)(/C(CO)=N/NC(=O)CCCCCN1C(=O)C=CC1=O)C[C@@H]3O[C@H]1C[C@H](N)[C@H](O)[C@H](C)O1 [ALDOXORUBICIN] | 0.58 | 1% | > 10 | – | – |
| CCc1ccc(/C=C/C(=O)Nc2ccc(C(C)=O)cc2)o1 | 4.95 | – | – | – | – |
| Cc1ccccc1N(C)C(=O)c1ccc([S+]([O-])c2nccs2)c([N+](=O)[O-])c1 (stereo unspecified) | – | 7% | > 10 | 0.13 | – |
| CC(C)c1cc(CNc2nc(Nc3cc(C4CC4)[nH]n3)cc(N3CCN(C)CC3)n2)on1 [XL-228] | 1.49 | 9% | > 10 | – | – |
| hemin | – | 7% | – | 6.35 | – |
| NC(CO)C(=O)NNCc1ccc(O)c(O)c1O (stereo unspecified) [BENSERAZIDE HYDROCHLORIDE] | – | 9% | > 10 | 0.39 | – |
| [O-][n+]1ccccc1S | – | – | – | 8.11 | inhibition [2, 5]: 42% |
| PHENYLMERCURIC ACETATE [listing 1 of 2 here] | 0.01 | – | > 10 | – | – |
| CCCCn1c(NC(=O)c2cccs2)c(C#N)c2nc3ccccc3nc21 | – | – | – | -3.7 | – |
| Oc1cc2c(cc1O)C(c1ccccc1)CNCC2 (stereo unspecified) | – | 5% | > 10 | 8.97 | – |
| O=C(O)c1cc(O)c2c(c1)[C@H]([C@H]1c3cc(C(=O)O)cc(O)c3C(=O)c3c(O[C@@H]4O[C@H](CO)[C@@H](O)[C@H](O)[C@H]4O)cccc31)c1cccc(O[C@@H]3O[C@H](CO)[C@@H](O)[C@H](O)[C@H]3O)c1C2=O [Sennoside A] | – | 42% | > 10 | 2.66 | – |
| C[n+]1c2cc(N)ccc2cc2ccc(N)cc21 [EUFLAVINE] | 4.98 | – | – | – | – |
| [O-][n+]1ccccc1S [PYRITHIONE] | 0.05 | – | – | – | – |
| O=C(CCl)c1ccccc1 | – | – | – | 7.75 | – |
| O=C(O)[C@@H](S)[C@@H](S)C(=O)O | 1.72 | 0% | > 10 | – | – |
| Cn1sc(=O)n(Cc2ccccc2)c1=O | – | – | – | 4.03 | – |
| Cc1cc(C)cc(N2C(=O)CC(Sc3nc[nH]n3)C2=O)c1 (stereo unspecified) | – | – | – | 2.86 | – |
| c1ccc2sc(SSc3nc4ccccc4s3)nc2c1 | – | – | – | 5.04 | – |
| CCCCCCNC(=O)n1cc(F)c(=O)[nH]c1=O | – | – | – | 14 | – |
| PHENYLMERCURIC ACETATE [listing 2 of 2 here] | – | 4% | – | 8.59 | – |

| Compound | IC50 [1] [µM] | inhibition [2] | IC50 [3] [µM] | inhibition [4] [%] | further results |
| --- | --- | --- | --- | --- | --- |
| N#CSc1cc(SC#N)c(N)nc1N | – | – | 2.3 | 4.59 | – |
| C[C@H]1COc2c(N3CCN(C)CC3)c(F)cc3c(=O)c(C(=O)O)cn1c23 [LEVOFLOXACIN] | – | – | 7.6 | 1.29 | – |
| ACRIFLAVINE HYDROCHLORIDE [listing 1 of 2 here] | – | – | – | 22 | – |
| Nc1ccc(O)c2ncccc12 | – | – | – | 4.98 | – |
| O=C(CC1Sc2ncnn2C1=O)Nc1ccc(Br)cc1 (stereo unspecified) | – | – | – | 8.42 | – |
| Oc1cc(CNC(=S)/C=C/c2cc(O)c(O)c(Br)c2)cc(O)c1O | 0.48 | 20% | > 10 | – | – |
| CC(C)c1ccc2oc3nc(N)c(C(=O)O)cc3c(=O)c2c1 [AMLEXANOX] | – | 0% | > 10 | 4.03 | – |
| ACRIFLAVINE HYDROCHLORIDE [listing 2 of 2 here] | 1.93 | – | 10 | – | – |
| O=c1c(O)c(-c2cc(O)c(O)c(O)c2)oc2cc(O)cc(O)c12 [MYRICETIN] | – | 5% | > 10 | 3.78 | – |
| C[C@@](Cc1ccc(O)c(O)c1)(NN)C(=O)O [CARBIDOPA ANHYDROUS] | 3.55 | 0% | > 10 | – | – |
| S=C(S)N1CCCC1 [PYRROLIDINE DITHIOCARBAMIC ACID, AMMONIUM SALT] | 0.21 | 42% | > 10 | – | – |
| C/N=c1/nc(-c2ccccc2)n(-c2ccccc2)s1 | 0.98 | 44% | > 10 | – | – |
| C[C@@H]1O[C@@H](O[C@@H]2[C@@H](O)[C@H](OCCc3ccc(O)c(O)c3)O[C@H](CO)[C@H]2OC(=O)/C=C/c2ccc(O)c(O)c2)[C@H](O)[C@H](O)[C@H]1O [ACETOSIDE] | 4.54 | – | – | – | – |
| O=C1C(Cl)=C(N2CCOCC2)C(=O)N1c1ccc(Cl)c(Cl)c1 | – | 0% | > 10 | 7.24 | – |
| Nc1cc2c3ccccc3ccc2c2ccccc12 | – | 3% | > 10 | -3.88 | – |
| MERBROMIN [listing 1 of 2 here] | – | 0% | – | 10.5 | – |
| [O-][n+]1ccccc1S [PYRITHIONE ZINC] | 2.46 | – | – | – | IC50 [3, 5]: > 10 µM |
| O=C(c1ccc(/C=C/c2n[nH]c3ccccc23)cc1)N1CCNCC1 [KW-2449] | – | – | 3.6 | 3.6 | – |
| MERBROMIN [listing 2 of 2 here] | 0.24 | – | > 10 | – | – |
| CISPLATIN | 3.82 | – | – | – | – |

| Compound | IC50 [1] [µM] | inhibition [2] | IC50 [3] [µM] | inhibition [4] [%] | further results |
| --- | --- | --- | --- | --- | --- |
| CCOC(=O)Cc1ccc(-c2ccccc2)cc1 | – | 18% | > 10 | -0.88 | – |
| AUROTHIOGLUCOSE | 1.74 | – | 10 | – | – |
| C[C@@H]1O[C@@H](Oc2c(-c3cc(O)c(O)c(O)c3)oc3cc(O)cc(O)c3c2=O)[C@@H](O)[C@H](O)[C@H]1O | 3.66 | – | – | – | – |
| O=c1sn(-c2cccc3ccccc23)c(=O)n1Cc1ccccc1 [TIDEGLUSIB] | – | 22% and 0% | > 10 | 30.7 | – |
| Oc1cc2c(cc1C(c1ccc(C(F)(F)F)cc1)N1CCOCC1)OCO2 (stereo unspecified) | – | – | – | 7.04 | – |
| CCN1CCN(C(c2ccc(C(F)(F)F)cc2)c2ccc3cccnc3c2O)CC1 (stereo unspecified) | – | – | – | 3.72 | – |
| O=[N+]([O-])c1ccc(Sc2cccc[n+]2[O-])c2nonc12 | – | – | – | 4.87 | – |
| Auranofin | – | 27% | – | 8.63 | – |
| C/C=C1\C(OC2OC(CO)C(O)C(O)C2O)OC=C(C(=O)OC)C1CC(=O)OCCc1ccc(O)c(O)c1 (stereo unspecified) | 3.38 | 0% | > 10 | – | – |
| COc1nc2ccc(Br)cc2cc1[C@@H](c1ccccc1)[C@@](O)(CCN(C)C)c1cccc2ccccc12 [BEDAQUILINE] | 4.36 | – | – | – | – |
| COc1cc(C(=S)N2CCOCC2)ccc1O [VANITIOLIDE] | – | 0% | > 10 | – | – |
| O=C(O[C@@H]1Cc2c(O)cc(O)cc2O[C@@H]1c1cc(O)c(O)c(O)c1)c1cc(O)c(O)c(O)c1 [EPIGALOCATECHIN GALLATE] | – | 10% and 16% | > 10 | -0.5 | – |
| C=C1C(=O)[C@]23[C@H](O)[C@H]1CC[C@@H]2[C@@]12CO[C@]3(O)C[C@@H]1C(C)(C)CC[C@@H]2O | 2.57 | – | – | – | – |
| O=c1cc(-c2ccccc2)oc2cc(O)c(O)c(O)c12 [BAICALEIN] | – | 47% | > 10 | – | – |
| CN(C)C(=S)SC(=S)N(C)C [BIS(DIMETHYLAMINETHIOCARBONYL)MONOSULFIDE] | – | 0% | > 10 | – | – |
| COC(=O)CC[C@H](NC(=O)[C@H](CC(=O)OC)NC(=O)OCc1ccccc1)C(=O)N[C@H](C(=O)N[C@@H](CC(=O)OC)C(=O)CF)C(C)C | – | – | – | 11.2 | – |
| O=C(/C=C/c1ccc(O)c(O)c1)O[C@H](Cc1ccc(O)c(O)c1)C(=O)O [ROSMARINIC ACID] | – | 19% | > 10 | – | – |
| O=C(/C=C/c1ccc(O)c2c1[C@@H](C(=O)O[C@H](Cc1ccc(O)c(O)c1)C(=O)O)[C@H](c1ccc(O)c(O)c1)O2)O[C@H](Cc1ccc(O)c(O)c1)C(=O)O | 3.42 | – | – | – | – |
| Cc1ccc(C)c(-n2sc3cc(F)ccc3c2=O)c1 | – | – | – | -0.52 | – |
| O=C1c2c(O)cc(O)cc2O[C@H](c2cc(O)c(O)c(O)c2)[C@H]1O [AMPELOPSIN] | – | 18% | > 10 | – | – |

— ChEMBL document CHEMBL4495564, “Identification of inhibitors of SARS-Cov2 M-Pro enzymatic activity using a small molecule repurposing screen” (2020)
